Data from patent EP0551518A1, “QUINOLINECARBOXYLIC ACID DERIVATIVE” (NIPPON SHINYAKU COMPANY, LIMITED, priority 1990, dated 1992).
Converted amounts (≈) assume the structure as drawn. Like-named read-outs stand apart in the source and are kept apart here.

Experiments:
Assay in all cases: Determination of minimal inhibitory concentration of growth (MIC)-1, agar plate dilution method
Format in all cases: cell-based
[1] = tested on: Staphylococcus aureus OWPH 1984 (MRSA); conditions: Staphylococcus aureus, MRSA, 18 h
Experimental: (§1) Method: MIC was determined by the agar plate dilution method in accordance with the standard protocol of Japan Society of Chemotherapy (cf. Chemotherapy 29 (1), 76-79, 1981). Each bacterial culture obtained by 18-hour incubation in a sensitivity assay bouillon medium at 37°C was diluted to 10⁶ CFU/ml with the same medium. Using a microplanter, a sensitivity assay agar medium containing the test drug was inoculated with the diluted culture and incubated at 37°C for 18 hours. The MIC value was then determined. As reference drugs, 6-fluoro-1-methyl-4-oxo-7-(1-piperazinyl)-4H-[1,3]thiazeto[3,2-a]quinoline-3-carboxylic acid (referred to as control), ciprofloxacin (CPFX) and ofloxacin (OFLX) were used.

[2] = tested on: Staphylococcus epider-midis IFO 12993; conditions: Staphylococcus, IFO12993, 18 h
Experimental: as §1

[3] = tested on: Staphylococcus aureus Smith
Experimental: as §1

[4] = tested on: Micrococcus luteus ATCC 9341
Experimental: as §1

[5] = tested on: Staphylococcus aureus OWPH 2125 (MRSA, PCA^r ); conditions: Staphylococcus aureus, MRSA, 18 h
Experimental: as §1

Escherichia coli KC-14 = conditions: Escherichia coli, KC14, 18 h, 10⁶ CFU/ml, 37°C, read-out: MIC
Experimental: as §1

Proteus vulgaris HX-19 = conditions: Proteus vulgaris, HX19, 18 h
Experimental: as §1

[6] = tested on: Bacillus subtilis ATCC 6633
Experimental: as §1

[7] = tested on: Staphylococcus aureus 209-P JC-1; conditions: Staphylococcus aureus, 209P, 18 h
Experimental: as §1

[8] = tested on: Enterococcus faecalis ATCC 29212
Experimental: as §1

[9] = tested on: Pseudomonas aeruginosa IFO 3445; conditions: Pseudomonas aeruginosa, IFO3445, 18 h
Experimental: as §1

[10] = Staphylococcus aureus OWPH 1984 (MRSA), agar plate dilution, 10⁶ CFU/ml, 37°C, 18 hours, read-out: MIC
[11] = Staphylococcus epider-midis IFO 12993, agar plate dilution, 10⁶ CFU/ml, 37°C, 18 hours, read-out: MIC
[12] = Staphylococcus aureus Smith, agar plate dilution, 10⁶ CFU/ml, 37°C, 18 hours, read-out: MIC
[13] = ATCC9341, Micrococcus luteus ATCC 9341, agar plate dilution, 10⁶ CFU/ml, 37°C, 18 hours, read-out: MIC
[14] = Staphylococcus aureus OWPH 2125 (MRSA, PCA^r), agar plate dilution, 10⁶ CFU/ml, 37°C, 18 hours, read-out: MIC
[15] = Proteus vulgaris HX-19, agar plate dilution, 10⁶ CFU/ml, 37°C, 18 hours, read-out: MIC
[16] = ATCC6633, Bacillus subtilis ATCC 6633, agar plate dilution, 10⁶ CFU/ml, 37°C, 18 hours, read-out: MIC
[17] = Staphylococcus aureus 209-P JC-1, agar plate dilution, 10⁶ CFU/ml, 37°C, 18 hours, read-out: MIC
[18] = ATCC29212, Enterococcus faecalis ATCC 29212, agar plate dilution, 10⁶ CFU/ml, 37°C, 18 hours, read-out: MIC
[19] = Pseudomonas aeruginosa IFO 3445, agar plate dilution, 10⁶ CFU/ml, 37°C, 18 hours, read-out: MIC

SMILES	MIC [1, 10] [µg/mL]	MIC [2, 11] [µg/mL]	MIC [3, 12] [µg/mL]	MIC [4, 13] [µg/mL]	MIC [5, 14] [µg/mL]	MIC (Escherichia coli KC-14) [µg/mL]	MIC (Proteus vulgaris HX-19; [15]) [µg/mL]	MIC [6, 16] [µg/mL]	MIC [7, 17] [µg/mL]	MIC [8, 18] [µg/mL]	MIC [9, 19] [µg/mL]	further results
CC1COc2c(N3CCN(C)CC3)c(F)cc3c(=O)c(C(=O)O)cn1c23 (racemic) [OFLX, ofloxacin, reference compound]	0.39 (≈ 1.08 µM)	0.39 (≈ 1.08 µM)	0.2 (≈ 0.553 µM)	3.13 (≈ 8.66 µM)	6.25 (≈ 17.3 µM)	0.05 (≈ 0.138 µM)	0.05 (≈ 0.138 µM)	0.1 (≈ 0.277 µM)	0.39 (≈ 1.08 µM)	1.56 (≈ 4.32 µM)	0.78 (≈ 2.16 µM)	–
O=C(O)c1cn(C2CC2)c2cc(N3CCNCC3)c(F)cc2c1=O [CPFX, ciprofloxacin, reference compound]	–	–	–	–	–	0.025 (≈ 0.0754 µM)	–	–	–	–	–	MIC [1]: 0.39 µg/mL (≈ 1.18 µM); MIC [2]: 0.39 µg/mL (≈ 1.18 µM); MIC ([3]; Staphylococcus aureus, 18 h): 0.2 µg/mL (≈ 0.604 µM); MIC ([4]; Micrococcus luteus, ATCC9341, 18 h): 0.39 µg/mL (≈ 1.18 µM); MIC [5]: 12.5 µg/mL (≈ 37.7 µM); MIC (Proteus vulgaris HX-19): 0.025 µg/mL (≈ 0.0754 µM); MIC ([6]; Bacillus subtilis, ATCC6633, 18 h): 0.05 µg/mL (≈ 0.151 µM); MIC [7]: 0.2 µg/mL (≈ 0.604 µM); MIC ([8]; Enterococcus faecalis, ATCC29212, 18 h): 1.56 µg/mL (≈ 4.71 µM); MIC [9]: 0.2 µg/mL (≈ 0.604 µM)
CC1Sc2c(C(=O)O)c(=O)c3cc(F)c(-c4ccccc4)cc3n21 (stereo not drawn) [Example 5, 6-Fluoro-1-methyl-4-oxo-7-phenyl-4H-[1,3]thiazeto[3,2-a]quinoline-3-carboxylic acid]	0.012 (≈ 0.0352 µM)	0.025 (≈ 0.0732 µM)	≤ 0.006	0.39 (≈ 1.14 µM)	0.05 (≈ 0.146 µM)	0.1 (≈ 0.293 µM)	0.05 (≈ 0.146 µM)	≤ 0.006	0.025 (≈ 0.0732 µM)	0.1 (≈ 0.293 µM)	0.2 (≈ 0.586 µM)	–
O=C(O)c1c2n(c3cc(-c4ccccc4)c(F)cc3c1=O)CS2 [Example 18, 6-Fluoro-4-oxo-7-phenyl-4H-[1,3]thiazeto[3,2-a]quinoline-3-carboxylic acid]	0.025 (≈ 0.0764 µM)	0.1 (≈ 0.305 µM)	≤ 0.006	6.25 (≈ 19.1 µM)	0.2 (≈ 0.611 µM)	0.2 (≈ 0.611 µM)	0.025 (≈ 0.0764 µM)	≤ 0.006	0.012 (≈ 0.0367 µM)	0.39 (≈ 1.19 µM)	0.39 (≈ 1.19 µM)	–
O=C(O)c1c2n(c3c(F)c(-c4ccccc4)c(F)cc3c1=O)CS2 [Example 19, 6,8-Difluoro-4-oxo-7-phenyl-4H-[1,3]thiazeto[3,2-a]quinoline-3-carboxylic acid]	0.025 (≈ 0.0724 µM)	0.025 (≈ 0.0724 µM)	≤ 0.006	6.25 (≈ 18.1 µM)	0.2 (≈ 0.579 µM)	0.1 (≈ 0.29 µM)	0.012 (≈ 0.0347 µM)	≤ 0.006	0.012 (≈ 0.0347 µM)	0.2 (≈ 0.579 µM)	0.78 (≈ 2.26 µM)	–
COc1c(-c2ccccc2)c(F)cc2c(=O)c(C(=O)O)c3n(c12)CS3 [Example 21, 6-Fluoro-8-methoxy-4-oxo-7-phenyl-4H-[1,3]thiazeto[3,2-a]quinoline-3-carboxylic acid]	0.025 (≈ 0.07 µM)	0.05 (≈ 0.14 µM)	0.05 (≈ 0.14 µM)	3.13 (≈ 8.76 µM)	0.39 (≈ 1.09 µM)	0.78 (≈ 2.18 µM)	0.39 (≈ 1.09 µM)	0.025 (≈ 0.07 µM)	0.05 (≈ 0.14 µM)	0.39 (≈ 1.09 µM)	6.25 (≈ 17.5 µM)	–
CC1Sc2c(C(=O)O)c(=O)c3cc(F)c(-c4ccccc4)c(F)c3n21 (stereo not drawn) [Example 24, 6,8-Difluoro-1-methyl-4-oxo-7-phenyl-4H-[1,3]thiazeto[3,2-a]quinoline-3-carboxylic acid]	0.012 (≈ 0.0334 µM)	0.012 (≈ 0.0334 µM)	≤ 0.006	0.39 (≈ 1.09 µM)	0.05 (≈ 0.139 µM)	0.2 (≈ 0.557 µM)	0.1 (≈ 0.278 µM)	≤ 0.006	0.012 (≈ 0.0334 µM)	0.05 (≈ 0.139 µM)	0.39 (≈ 1.09 µM)	–
COc1c(-c2ccc(N)cc2)c(F)cc2c(=O)c(C(=O)O)c3n(c12)C(C)S3 (stereo not drawn) [Example 27, 7-(4-Aminophenyl)-6-fluoro-8-methoxy-1-methyl-4-oxo-4H[1,3]thiazeto[3,2-a]quinoline-3-carboxylic acid]	≤ 0.006	≤ 0.006	≤ 0.006	0.1 (≈ 0.259 µM)	≤ 0.006	0.1 (≈ 0.259 µM)	0.012 (≈ 0.0311 µM)	≤ 0.006	0.012 (≈ 0.0311 µM)	0.05 (≈ 0.129 µM)	0.78 (≈ 2.02 µM)	–
Nc1ccc(-c2cc3c(cc2F)c(=O)c(C(=O)O)c2n3CS2)cc1 [Example 31, 7-(4-Aminophenyl)-6-fluoro-4-oxo-4H-[1,3]thiazeto[3,2-a]quinoline-3-carboxylic acid]	0.025 (≈ 0.073 µM)	≤ 0.006	≤ 0.006	1.56 (≈ 4.56 µM)	0.2 (≈ 0.584 µM)	0.025 (≈ 0.073 µM)	≤ 0.006	≤ 0.006	0.012 (≈ 0.0351 µM)	0.1 (≈ 0.292 µM)	0.2 (≈ 0.584 µM)	–
COc1ccc(-c2cc3c(cc2F)c(=O)c(C(=O)O)c2n3C(C)S2)cc1 (stereo not drawn) [Example 38, 6-Fluoro-7-(4-methoxyphenyl)-1-methyl-4-oxo-4H-[1,3]th-iazeto[3,2-a]quinoline-3-carboxylic acid]	0.025 (≈ 0.0673 µM)	0.1 (≈ 0.269 µM)	0.025 (≈ 0.0673 µM)	0.39 (≈ 1.05 µM)	0.2 (≈ 0.539 µM)	0.39 (≈ 1.05 µM)	0.78 (≈ 2.1 µM)	0.012 (≈ 0.0323 µM)	0.1 (≈ 0.269 µM)	0.2 (≈ 0.539 µM)	1.56 (≈ 4.2 µM)	–
CC1Sc2c(C(=O)O)c(=O)c3cc(F)c(-c4ccc(O)cc4)cc3n21 (stereo not drawn) [Example 44, 6-Fluoro-7-(4-hydroxyphenyl)-1-methyl-4-oxo-4H-[1,3]thiazeto[3,2-a]quinoline-3-carboxylic acid]	0.012 (≈ 0.0336 µM)	≤ 0.006	≤ 0.006	0.1 (≈ 0.28 µM)	0.05 (≈ 0.14 µM)	0.1 (≈ 0.28 µM)	0.025 (≈ 0.07 µM)	≤ 0.006	≤ 0.006	0.1 (≈ 0.28 µM)	0.2 (≈ 0.56 µM)	–
CNc1ccc(-c2cc3c(cc2F)c(=O)c(C(=O)O)c2n3CS2)cc1 [Example 46, 6-Fluoro-7-(4-methylaminophenyl)-4-oxo-4H-[1,3]thiazeto[3,2-a]quinoline-3-carboxylic acid]	0.012 (≈ 0.0337 µM)	0.05 (≈ 0.14 µM)	≤ 0.006	0.78 (≈ 2.19 µM)	0.1 (≈ 0.281 µM)	0.1 (≈ 0.281 µM)	0.025 (≈ 0.0702 µM)	≤ 0.006	0.025 (≈ 0.0702 µM)	0.2 (≈ 0.561 µM)	0.78 (≈ 2.19 µM)	–
CCNc1ccc(-c2cc3c(cc2F)c(=O)c(C(=O)O)c2n3C(C)S2)cc1 (stereo not drawn) [Example 47, 7-(4-Ethylaminophenyl)-6-fluoro-1-methyl-4-oxo-4H-[1,3]thiazeto[3,2-a]quinoline-3-carboxylic acid]	0.025 (≈ 0.065 µM)	≤ 0.006	≤ 0.006	0.39 (≈ 1.01 µM)	0.05 (≈ 0.13 µM)	0.2 (≈ 0.52 µM)	0.05 (≈ 0.13 µM)	≤ 0.006	0.025 (≈ 0.065 µM)	0.1 (≈ 0.26 µM)	1.56 (≈ 4.06 µM)	–
CNc1ccc(-c2c(F)cc3c(=O)c(C(=O)O)c4n(c3c2OC)C(C)S4)cc1 (stereo not drawn) [Example 49, 6-Fluoro-8-methoxy-1-methyl-7-(4-methylaminophenyl)-4-oxo-4H-[1,3]thiazeto[3,2-a]quinoline-3-carboxylic acid]	0.012 (≈ 0.03 µM)	0.012 (≈ 0.03 µM)	≤ 0.006	0.2 (≈ 0.499 µM)	0.1 (≈ 0.25 µM)	0.39 (≈ 0.974 µM)	0.39 (≈ 0.974 µM)	≤ 0.006	0.025 (≈ 0.0624 µM)	0.025 (≈ 0.0624 µM)	3.13 (≈ 7.82 µM)	–
CC1Sc2c(C(=O)O)c(=O)c3cc(F)c(-c4ccc(N)cc4)cc3n21.Cl (stereo not drawn) [Example 55, 7-(4-Aminophenyl)-6-fluoro-1-methyl-4-oxo-4H-[1,3]thiazeto[3,2-a]quinoline-3-carboxylic acid hydrochloride]	0.012	0.012	0.012	0.39	0.05	0.1	0.025	≤ 0.006	0.025	0.1	0.39	–
